The values that follow come from US6958352B2, “Compounds for inhibiting insulin secretion and methods related thereto” (SmithKline Beecham Corporation, priority 2002, dated 2005).

The experiment has as its target T1, mitochondrial calcium/sodium antiporter (Rattus norvegicus, UniProt Q6AXS0).
T1 sequence (Q6AXS0 1-585): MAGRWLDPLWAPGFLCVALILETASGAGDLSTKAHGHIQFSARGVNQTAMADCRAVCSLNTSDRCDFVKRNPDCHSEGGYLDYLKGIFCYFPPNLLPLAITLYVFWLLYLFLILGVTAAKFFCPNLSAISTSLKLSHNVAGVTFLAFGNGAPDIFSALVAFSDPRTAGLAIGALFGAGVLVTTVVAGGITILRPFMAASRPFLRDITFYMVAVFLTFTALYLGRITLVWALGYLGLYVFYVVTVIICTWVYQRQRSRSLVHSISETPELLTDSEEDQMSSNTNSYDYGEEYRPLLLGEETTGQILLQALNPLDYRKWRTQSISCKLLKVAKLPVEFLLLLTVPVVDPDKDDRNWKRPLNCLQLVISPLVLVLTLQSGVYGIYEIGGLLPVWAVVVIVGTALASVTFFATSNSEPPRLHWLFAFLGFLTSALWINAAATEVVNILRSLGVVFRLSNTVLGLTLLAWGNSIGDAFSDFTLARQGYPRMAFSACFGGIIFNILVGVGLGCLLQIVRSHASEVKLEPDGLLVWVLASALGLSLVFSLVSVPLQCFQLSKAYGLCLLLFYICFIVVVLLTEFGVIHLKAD
Kind of experiment: Inhibition of mitochondrial calcium/sodium antiporter activity (NaCl-induced mitochondrial calcium efflux, calcium green 5N fluorescence). The class given is cell-based. To be noted: digitonin-permeabilized INS-1 cells, 20 mM NaCl. How it is done:
INS-1 rat insulinoma cells (see Example 16) were harvested by trypsinization, washed and resuspended at 10×10^6 cells/ml in assay buffer (250 mM sucrose, 10 mM HEPES, 2.5 mM K2HPO4, 5 mM succinate, pH 7.4) containing 0.007% digitonin, 60 μM CaCl2 and 0.05 μM calcium green 5N (Molecular Probes, Inc., Eugene, Oreg.). After a five-minute calcium loading incubation, ruthenium red (1 μM; Sigma, St. Louis, Mo.) was added to block further calcium uptake by mitochondria. Cell suspensions were dispensed into 96-well plates (100 μl per well, 1×10^6 cells per well) and candidate agents (i.e., candidate mitochondrial calcium/sodium antiporter inhibitors) were added to some sets of triplicate wells at concentrations of 1, 10 or 100 μM, while other sets of wells provided appropriate control conditions (e.g., buffer and vehicle controls). Baseline fluorescence measurements were made using a multiwell plate fluorimeter (F-MAX™, Molecular Devices Corp., Sunnyvale, Calif.; or PolarStar™, BMG Labtechnologies, Inc., Durham, N.C.) according to the manufacturer's instructions. Calcium efflux from mitochondria was then induced by adding NaCl to all wells to achieve a final concentration of 20 mM, and the rate of change in fluorescence in each well was monitored […] for two minutes and quantified using software included with the plate reader.

Setting [1] is: Table 2, preferred compounds, read-out: IC50 ≦ 10 μM.
The mark [2] stands for this setting: Table 3, more preferred compounds, read-out: IC50 ≦ 1 μM.

A word on the IC50: it is the concentration needed to halve the response being measured.

Like-named read-outs stand apart in the source and are kept apart here.

Turning to `Nc1ccc(Cl)cc1C(SCC(=O)N1CCN(c2ccccc2)CC1)c1ccccc1Cl` (centres unmarked) [Compound 13j], the IC50 is at most 10 µM under setting [1] and at most 1 µM under setting [2]. Consider `CCCNC(=O)CSC(c1cc(Cl)ccc1N)c1ccccc1Cl` (centres unmarked) [Compound 13k], for which the IC50 is at most 10 µM under setting [1] and at most 1 µM under setting [2]. On the same counts, the results for `CCCCCCNC(=O)CSC(c1cc(Cl)ccc1N)c1ccccc1Cl` (centres unmarked) [Compound 13l] are at most 10 µM and at most 1 µM. For the molecule `COCCCNC(=O)CSC(c1cc(Cl)ccc1N)c1ccccc1Cl` (centres unmarked) [Compound 13m], the IC50 reads like this: under setting [1], at most 10 µM; under setting [2], at most 1 µM. As to `Nc1ccc(Cl)cc1C(SCC(=O)NCC1CCCCC1)c1ccccc1Cl` (centres unmarked) [Compound 13n], the half-inhibitory concentration (IC50) is, setting by setting: under setting [1], at most 10 µM; under setting [2], at most 1 µM.

As to `C#CCNC(=O)CSC(c1cc(Cl)ccc1N)c1ccccc1Cl` (centres unmarked) [Compound 13o], the 50% inhibitory concentration (IC50) was at most 10 µM under setting [1] and at most 1 µM under setting [2]. `Nc1ccc(Cl)cc1C(SCC(=O)NCCCn1ccnc1)c1ccccc1Cl` (centres unmarked) [Compound 13p]: the concentration for half-maximal inhibition (IC50) under setting [1] is at most 10 µM and the IC50 under setting [2] was at most 1 µM. Consider `CN(C)CCCNC(=O)CSC(c1cc(Cl)ccc1N)c1ccccc1Cl` (centres unmarked) [Compound 13q], for which the concentration for half-maximal inhibition (IC50) under setting [1] is at most 10 µM.

As for `Nc1ccc(Cl)cc1C(SCC(=O)NC1CC1)c1ccccc1Cl` (centres unmarked) [Compound 13r], the half-maximal inhibitory concentration (IC50) reads like this: under setting [1], at most 10 µM; under setting [2], at most 1 µM. In the case of `Nc1ccc(Cl)cc1C(SCC(=O)NCCc1ccc(O)cc1)c1ccccc1Cl` (centres unmarked) [Compound 13s], the IC50 runs as follows: under setting [1], at most 10 µM; under setting [2], at most 1 µM.

Turning to `Nc1ccc(Cl)cc1C(SCC(=O)NCCc1ccc(O)c(I)c1)c1ccccc1Cl` (centres unmarked) [Compound 13t], the concentration for half-maximal inhibition (IC50) under setting [1] is at most 10 µM. As to `Nc1ccc(Cl)cc1C(SCC(=O)NCCc1cc(I)c(O)c(I)c1)c1ccccc1Cl` (centres unmarked) [Compound 13u], the IC50 reads like this: under setting [1], at most 10 µM; under setting [2], at most 1 µM.

`NCCOCCOCCNC(=O)CSC(c1cc(Cl)ccc1N)c1ccccc1Cl` (centres unmarked) [Compound 13v]: the half-maximal inhibitory concentration (IC50) under setting [1] is at most 10 µM and the IC50 under setting [2] was at most 1 µM. As to `Nc1ccc(Cl)cc1C(SCc1nc(-c2ccc(F)cc2)no1)c1ccccc1Cl` (centres unmarked) [Compound 14a], the IC50 under setting [1] is at most 10 µM. With `Cc1noc(CSC(c2cc(Cl)ccc2N)c2ccccc2Cl)n1` (centres unmarked) [Compound 14b], the IC50 runs as follows: under setting [1], at most 10 µM; under setting [2], at most 1 µM. Take `Cc1cc(C)cc(C(SCc2nc(C)no2)c2cc(Cl)ccc2N)c1` (centres unmarked) [Compound 14d]: the 50% inhibitory concentration (IC50) under setting [1] is at most 10 µM.

For `Cc1noc(CSC(c2cccs2)c2cc(Cl)ccc2N)n1` (centres unmarked) [Compound 14g], the IC50 was at most 10 µM under setting [1] and at most 1 µM under setting [2]. For `Cc1noc(CSC(c2cc(Cl)ccc2N)c2cccn2C)n1` (centres unmarked) [Compound 14h], the concentration for half-maximal inhibition (IC50) runs as follows: under setting [1], at most 10 µM; under setting [2], at most 1 µM. In the case of `Cc1cccc(C(SCc2nc(C)no2)c2cc(Cl)ccc2N)c1` (centres unmarked) [Compound 14i], the 50% inhibitory concentration (IC50) under setting [1] was at most 10 µM. For the molecule `Cc1noc(CSC(c2cc(Cl)ccc2N)c2cccc(C)c2C)n1` (centres unmarked) [Compound 14k], the concentration for half-maximal inhibition (IC50) is at most 10 µM under setting [1] and at most 1 µM under setting [2]. As for `Cc1noc(CSC(c2ccc(C)c(C)c2)c2cc(Cl)ccc2N)n1` (centres unmarked) [Compound 14l], the half-inhibitory concentration (IC50) under setting [1] was at most 10 µM. The same measure, in the same setting: then `Cc1ccc(C)c(C(SCc2nc(C)no2)c2cc(Cl)ccc2N)c1` (centres unmarked) [Compound 14m], with at most 10 µM. With `Cc1ccc(C)c(C(SCc2nc(C)no2)c2cc(Cl)ccc2NC(=O)C(F)(F)F)c1` (centres unmarked) [Compound 14ma], under setting [1], the IC50 is at most 10 µM. In the case of `Cc1noc(CSC(c2ccccc2)c2cc([N+](=O)[O-])ccc2N)n1` (centres unmarked) [Compound 14t], the IC50 under setting [1] is at most 10 µM. On to `CCSC(c1cc(Cl)ccc1N)c1ccccc1Cl` (centres unmarked) [Compound 15c], for which the IC50 runs as follows: under setting [1], at most 10 µM; under setting [2], at most 1 µM. For the molecule `Nc1ccc(Cl)cc1C(SCCO)c1ccccc1Cl` (centres unmarked) [Compound 15d], the IC50 is at most 10 µM under setting [1] and at most 1 µM under setting [2]. On to `COC(=O)CCSC(c1cc(Cl)ccc1N)c1ccccc1Cl` (centres unmarked) [Compound 15e], for which the half-maximal inhibitory concentration (IC50) is at most 10 µM under setting [1] and at most 1 µM under setting [2]. For the molecule `Nc1ccc(Cl)cc1C(Sc1ccccn1)c1ccccc1Cl` (centres unmarked) [Compound 15f], the IC50 is at most 10 µM under setting [1] and at most 1 µM under setting [2]. With `Nc1ccc(Cl)cc1C(SCC(F)(F)F)c1ccccc1Cl` (centres unmarked) [Compound 15i], the IC50 is at most 10 µM under setting [1] and at most 1 µM under setting [2]. For the molecule `Nc1ccc(Cl)cc1C(SCCCO)c1ccccc1Cl` (centres unmarked) [Compound 15k], the IC50 is at most 10 µM under setting [1] and at most 1 µM under setting [2]. Consider `Nc1ccc(Cl)cc1C(SCCNC(=O)c1ccccc1)c1ccccc1Cl` (centres unmarked) [Compound 16a], for which the concentration for half-maximal inhibition (IC50) under setting [1] is at most 10 µM and the 50% inhibitory concentration (IC50) under setting [2] was at most 1 µM. For the molecule `COc1ccc(C(=O)NCCSC(CC(C)C)c2cc(Cl)ccc2N)cc1OC` (centres unmarked) [Compound 16aa], the concentration for half-maximal inhibition (IC50) under setting [2] was at most 1 µM. `COc1cc(C(=O)NCCSC(c2cc(Cl)ccc2N)C(C)C)cc(OC)c1OC` (centres unmarked) [Compound 16ab]: the half-inhibitory concentration (IC50) under setting [2] was at most 1 µM.

In the case of `COc1cc(C(=O)NCCSC(CC(C)C)c2cc(Cl)ccc2N)cc(OC)c1OC` (centres unmarked) [Compound 16ac], the half-maximal inhibitory concentration (IC50) under setting [2] was at most 1 µM. As to `COc1ccc(C(=O)NCCSC(c2cc(F)ccc2N)C2CCCCC2)cc1OC` (centres unmarked) [Compound 16ad], the IC50 under setting [2] was at most 1 µM.

As to `COc1ccc(C(=O)NCCSC(c2ccccc2N)C2CCCCC2)cc1OC` (centres unmarked) [Compound 16ae], under setting [2], the half-maximal inhibitory concentration (IC50) was at most 1 µM.

Consider `COc1ccc(CC(=O)NCCSC(c2cc(Cl)ccc2N)c2ccccc2Cl)cc1OC` (centres unmarked) [Compound 16b], for which the IC50 was at most 10 µM under setting [1] and at most 1 µM under setting [2]. In the case of `Nc1ccc(Cl)cc1C(SCCNC(=O)c1ccc(Cl)cc1Cl)c1ccccc1Cl` (centres unmarked) [Compound 16c], the IC50 under setting [1] is at most 10 µM.

Consider `COc1ccc(C(=O)NCCSC(c2cc(Cl)ccc2N)c2ccccc2Cl)cc1OC` (centres unmarked) [Compound 16d], for which the IC50 reads like this: under setting [1], at most 10 µM; under setting [2], at most 1 µM. `Nc1ccc(Cl)cc1C(SCCNC(=O)c1cccc(Br)c1)c1ccccc1Cl` (centres unmarked) [Compound 16e]: the IC50 under setting [1] was at most 10 µM and the 50% inhibitory concentration (IC50) under setting [2] is at most 1 µM. With `COC1CCC(C(=O)NCCSC(c2cc(Cl)ccc2N)c2ccccc2Cl)CC1` (centres unmarked) [Compound 16f], the half-maximal inhibitory concentration (IC50) reads like this: under setting [1], at most 10 µM; under setting [2], at most 1 µM.

In the case of `Nc1ccc(Cl)cc1C(SCCNC(=O)c1ccc([N+](=O)[O-])cc1)c1ccccc1Cl` (centres unmarked) [Compound 16g], the 50% inhibitory concentration (IC50) was at most 10 µM under setting [1] and at most 1 µM under setting [2]. On the same counts, the results for `Nc1ccc(Cl)cc1C(SCCNC(=O)C1CCC1)c1ccccc1Cl` (centres unmarked) [Compound 16h] are at most 10 µM and at most 1 µM. For `Nc1ccc(Cl)cc1C(SCCNC(=O)C1CCCCC1)c1ccccc1Cl` (centres unmarked) [Compound 16i], the IC50 by setting is: under setting [1], at most 10 µM; under setting [2], at most 1 µM. As for `CC(C)C(=O)NCCSC(c1cc(Cl)ccc1N)c1ccccc1Cl` (centres unmarked) [Compound 16j], the IC50 was at most 10 µM under setting [1] and at most 1 µM under setting [2]. Turning to `Nc1ccc(Cl)cc1C(SCCNC(=O)c1cccnc1)c1ccccc1Cl` (centres unmarked) [Compound 16k], the 50% inhibitory concentration (IC50) is, setting by setting: under setting [1], at most 10 µM; under setting [2], at most 1 µM.

Consider `Nc1ccc(Cl)cc1C(SCCNC(=O)COc1ccccc1)c1ccccc1Cl` (centres unmarked) [Compound 16l], for which the IC50 reads like this: under setting [1], at most 10 µM; under setting [2], at most 1 µM.

`Nc1ccc(Cl)cc1C(SCCNC(=O)c1ccccn1)c1ccccc1Cl` (centres unmarked) [Compound 16m]: the IC50 was at most 10 µM under setting [1] and at most 1 µM under setting [2].

On to `COc1ccc(C(=O)NCCSC(c2cc(Cl)ccc2N)C2CCCCC2)cc1OC` (centres unmarked) [Compound 16n], for which the IC50 under setting [2] was at most 1 µM. Turning to `COc1cc(C(=O)NCCSC(c2cc(Cl)ccc2N)C2CCCCC2)cc(OC)c1O` (centres unmarked) [Compound 16p], the IC50 under setting [1] is at most 10 µM.

As to `COc1ccccc1C(=O)NCCSC(c1cc(Cl)ccc1N)C1CCCCC1` (centres unmarked) [Compound 16q], the IC50 under setting [2] was at most 1 µM. The same measure, in the same setting: then `COc1cccc(C(=O)NCCSC(c2cc(Cl)ccc2N)C2CCCCC2)c1` (centres unmarked) [Compound 16r], with at most 1 µM. For `COc1ccc(C(=O)NCCSC(c2cc(Cl)ccc2N)C2CCCCC2)cc1` (centres unmarked) [Compound 16s], the IC50 under setting [2] is at most 1 µM.

In the case of `Nc1ccc(Cl)cc1C(SCCNC(=O)c1cccnc1)C1CCCCC1` (centres unmarked) [Compound 16t], the IC50 under setting [2] is at most 1 µM. Same read-out and setting: for `Nc1ccc(Cl)cc1C(SCCNC(=O)c1ccncc1)C1CCCCC1` (centres unmarked) [Compound 16u] the value was at most 1 µM. With `Nc1ccc(Cl)cc1C(SCCNC(=O)c1cn[nH]c1)C1CCCCC1` (centres unmarked) [Compound 16v], the half-maximal inhibitory concentration (IC50) under setting [1] was at most 10 µM.
